In BigSolDB 2.1:

CCOc1ncc(C)c2c1[C@H](c1ccc(C#N)cc1OC)C(C(N)=O)=C(C)N2
solubility (mole fraction)
Settings	in 2-butanone	in acetone	in acetonitrile	in dichloromethane	in ethanol	in ethyl acetate	in isopropanol	in isopropyl acetate	in methanol	in methyl acetate
273.15 K	0.0031	0.00376	0.000808	0.0047	0.000949	0.00114	0.000229	0.000378	0.004	0.00127
278.15 K	0.00347	0.00407	0.000973	0.00506	0.00115	0.00128	0.000333	0.000459	0.00422	0.00136
283.15 K	0.00376	0.00449	0.00111	0.00565	0.00135	0.00143	0.000443	0.000563	0.0045	0.0015
288.15 K	0.0041	0.00508	0.00129	0.00622	0.00156	0.00157	0.000554	0.000647	0.00484	0.00166
293.15 K	0.0044	0.00545	0.00144	0.00669	0.00182	0.0017	0.000682	0.000728	0.00515	0.00182
298.15 K	0.00468	0.00577	0.00166	0.00724	0.00206	0.00182	0.000822	0.000809	0.00553	0.00197
303.15 K	0.00508	0.00614	0.0019	0.00766	0.00233	0.00195	0.000984	0.00089	0.00599	0.00211
308.15 K	0.00542	0.00665	0.00217	0.00814	0.00261	0.00211	0.00122	0.000979	0.00638	0.00229
313.15 K	0.00587	0.00725	0.00247	–	0.00299	0.00225	0.00152	0.00113	0.00684	0.00248
